Consider 23 molecules from US9745284B2, “2-pyridyloxy-4-ether orexin receptor antagonists” (MERCK SHARP & DOHME CORP., priority 2013, dated 2017).

Structures are written as SMILES.

The target in one test is human orexin-2 receptor (Homo sapiens (Human), UniProt O43614). Kind of test: FLIPR Ca2+ flux assay, orexin-2 receptor. In kind it is cell-based. Particulars: CHO cells expressing human orexin-2 receptor; agonist 70 pM Ala-6,12 orexin-A; read-out: hOX2R FLIPR IC50. The protocol: The utility of the compounds in accordance with the present invention as orexin receptor OX1R and/or OX2R antagonists may be readily determined without undue experimentation by methodology well known in the art, including the “FLIPR Ca^2+ Flux Assay” (Okumura et al., Biochem. Biophys. Res. Comm. 280:976-981, 2001). In a typical experiment the OX1 and OX2 receptor antagonistic activity of the compounds of the present invention was determined in accordance with the following experimental method. For intracellular calcium measurements, Chinese hamster ovary (CHO) cells expressing the rat orexin-1 receptor or the human orexin-2 receptor, are grown in Iscove's modified DMEM containing 2 mM L-glutamine, […], 1% hypoxanthine-thymidine supplement, 100 U/ml penicillin, 100 μg/ml streptomycin and 10% heat-inactivated fetal calf serum (FCS). The cells are seeded at 20,000 cells/well into Becton-Dickinson black 384-well clear bottom sterile plates coated with poly-D-lysine. All reagents were from GIBCO-Invitrogen Corp. The seeded plates are incubated overnight at 37° C. and 5% CO2. Ala-6,12 human orexin-A as the agonist is prepared as a 1 mM stock solution in 1% bovine serum albumin (BSA) and diluted in assay buffer (HBSS containing 20 mM HEPES, 0.1% BSA and 2.5 mM probenecid, pH7.4) for use in the assay at a final concentration of 70 pM. Test compounds are prepared as 10 mM stock solution in DMSO, then diluted in 384-well plates, first in DMSO, then assay buffer. On the day of the assay, cells are washed 3 times with 100 μl assay buffer and then incubated for 60 min (37° C., 5% CO2) in 60 μl assay buffer containing 1 μM Fluo-4AM ester, 0.02% pluronic acid, and 1% BSA. The dye loading solution is then aspirated and cells are washed 3 times with 100 μl assay buffer. 30 μl of that same buffer is left in each well. Within the Fluorescent Imaging Plate Reader (FLIPR, Molecular Devices), test compounds are added to the plate in a volume of 25 μl, incubated for 5 min and finally 25 μl of agonist is added. Fluorescence is measured for each well at 1 second intervals for 5 minutes and the height of each fluorescence peak is compared to the height of the fluorescence peak induced by 70 pM Ala-6,12 orexin-A with buffer in place of antagonist. For each antagonist, IC50 value (the concentration of compound needed to inhibit 50% of the agonist response) is determined. Alternatively, compound potency can be assessed by a radioligand binding assay (described in Bergman et. al. Bioorg. Med. Chem. Lett. 2008, 18, 1425-1430) in which the inhibition constant (Ki) is determined in membranes prepared from CHO cells expressing either the OX1 or OX2 receptor. The intrinsic orexin receptor antagonist activity of a compound which may be used in the present invention may be determined by these assays.
Chain of human orexin-2 receptor (O43614 whole entry): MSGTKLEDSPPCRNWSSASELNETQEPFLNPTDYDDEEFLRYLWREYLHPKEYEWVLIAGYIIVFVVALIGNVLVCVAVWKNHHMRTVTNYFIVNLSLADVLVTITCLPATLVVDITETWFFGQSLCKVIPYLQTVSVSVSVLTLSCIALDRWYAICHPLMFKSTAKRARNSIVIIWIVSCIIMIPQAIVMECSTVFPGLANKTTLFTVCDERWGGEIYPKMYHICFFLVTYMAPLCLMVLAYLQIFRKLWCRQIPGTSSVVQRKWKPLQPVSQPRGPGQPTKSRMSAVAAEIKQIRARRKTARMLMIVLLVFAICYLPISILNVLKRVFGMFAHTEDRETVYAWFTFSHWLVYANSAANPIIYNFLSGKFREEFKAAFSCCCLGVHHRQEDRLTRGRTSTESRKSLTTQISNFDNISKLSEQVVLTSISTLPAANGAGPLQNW
A general note: A change in cytosolic calcium serves as a functional read-out for many receptors and channels.

Another test concerns the target hOX1R (Homo sapiens, UniProt O43613). Description: FLIPR Ca2+ flux assay, orexin-1 receptor. In kind it is cell-based. As to conditions: CHO cells expressing orexin-1 receptor; agonist 70 pM Ala-6,12 orexin-A.

A word on the IC50: it is the concentration needed to halve the response being measured. For `CCOc1ccnc(O[C@@H]2CC[C@@H](C)N(C(=O)c3ccccc3-n3nccn3)C2)c1` [Example 1, 4-Ethoxy-2-{[(3R,6R)-6-methyl-1-{[2-(2H-1,2,3-triazol-2-yl)phenyl]carbonyl}piperidin-3-yl]oxy}pyridine], the IC50 stood at 20.5 nM on human orexin-2 receptor and 859 nM on hOX1R. On to `COc1ccnc(O[C@@H]2CC[C@@H](C)N(C(=O)c3ccccc3-n3nccn3)C2)c1` [Example 2, 4-methoxy-2-{[(3R,6R)-6-methyl-1-{[2-(2H-1,2,3-triazol-2-yl)phenyl]carbonyl}piperidin-3-yl]oxy}pyridine], for which the IC50 is 12.5 nM at human orexin-2 receptor and 617 nM on hOX1R. Consider `COc1ccnc(O[C@@H]2CC[C@@H](C)N(C(=O)c3ccccc3-n3nccn3)C2)c1Br` [Example 3, 3-bromo-4-methoxy-2-{[(3R,6R)-6-methyl-1-{[2-(2H-1,2,3-triazol-2-yl)phenyl]carbonyl}piperidin-3-yl]oxy}pyridine], for which the IC50 came out at 14.7 nM on human orexin-2 receptor and 843 nM at hOX1R. For the molecule `C[C@@H]1CC[C@@H](Oc2cc(OCc3ccccc3)ccn2)CN1C(=O)c1ccccc1-n1nccn1` [Example 4, 4-(benzyloxy)-2-{[(3R,6R)-6-methyl-1-{[2-(2H-1,2,3-triazol-2-yl)phenyl]carbonyl}piperidin-3-yl]oxy}pyridine], the IC50 was determined as 59.4 nM on human orexin-2 receptor and 1850 nM at hOX1R. For `CC(C)Oc1ccnc(O[C@@H]2CC[C@@H](C)N(C(=O)c3ccccc3-n3nccn3)C2)c1` [Example 5, 4-(1-Methylethoxy)-2-{[(3R,6R)-6-methyl-1-{[2-(2H-1,2,3-triazol-2-yl)phenyl]carbonyl}piperidin-3-yl]oxy}pyridine] the same measures were 15.1 nM and 669 nM. As to `COc1ccnc(O[C@@H]2CC[C@@H](C)N(C(=O)c3ccccc3-n3ncnn3)C2)c1` [Example 6, 4-Methoxy-2-{[(3R,6R)-6-methyl-1-{[2-(2H-tetrazol-2-yl)phenyl]carbonyl}piperidin-3-yl]oxy}pyridine], the IC50 at human orexin-2 receptor stood at 19 nM; on hOX1R, 2180 nM. Consider `CC(C)Oc1ccnc(O[C@@H]2CC[C@@H](C)N(C(=O)c3ccccc3-n3ncnn3)C2)c1` [Example 7, 4-(1-methylethoxy)-2-{[(3R,6R)-6-methyl-1-{[2-(2H-tetrazol-2-yl)phenyl]carbonyl}piperidin-3-yl]oxy}pyridine], for which the IC50 on human orexin-2 receptor amounted to 23 nM; on hOX1R it was 1200 nM. Regarding `CCOc1ccnc(O[C@@H]2CC[C@@H](C)N(C(=O)c3ccccc3-n3ncnn3)C2)c1` [Example 8, 4-ethoxy-2-{[(3R,6R)-6-methyl-1-{[2-(2H-tetrazol-2-yl)phenyl]carbonyl}piperidin-3-yl]oxy}pyridine], the IC50 is 35.4 nM on human orexin-2 receptor and 2010 nM at hOX1R.

For `COc1ccnc(O[C@@H]2CC[C@@H](C)N(C(=O)c3cccc(F)c3-n3nccn3)C2)c1` [Example 10, 2-{[(3R,6R)-1-{[3-fluoro-2-(2H-1,2,3-triazol-2-yl)phenyl]carbonyl}-6-methylpiperidin-3-yl]oxy}-4-methoxypyridine], the IC50 at human orexin-2 receptor was 14.7 nM; on hOX1R it was 576 nM.

For `COc1ccnc(O[C@@H]2CC[C@@H](C)N(C(=O)c3ccccc3C3CC3)C2)c1` [Example 12, 2-({(3R,6R)-1-[(2-cyclopropylphenyl)carbonyl]-6-methylpiperidin-3-yl}oxy)-4-methoxypyridine], the IC50 was determined as 11 nM on human orexin-2 receptor and 938 nM at hOX1R. For `COc1ccnc(O[C@@H]2CC[C@@H](C)N(C(=O)c3ccccc3C(F)(F)F)C2)c1` [Example 13, 4-methoxy-2-{[(3R,6R)-6-methyl-1-{[2-(trifluoromethyl)phenyl]carbonyl}piperidin-3-yl]oxy}pyridine] the same measures were 56.2 nM and 1760 nM. In the case of `CCOc1ccccc1C(=O)N1C[C@H](Oc2cc(OC)ccn2)CC[C@H]1C` [Example 14, 2-({(3R,6R)-1-[(2-ethoxyphenyl)carbonyl]-6-methylpiperidin-3-yl}oxy)-4-methoxypyridine], the figures for the IC50 on human orexin-2 receptor and at hOX1R were 34.8 nM and 1980 nM, respectively. Consider `COc1ccnc(O[C@@H]2CC[C@@H](C)N(C(=O)c3ccc(OC)nc3-c3ccccc3)C2)c1` [Example 15, 6-methoxy-3-({(2R,5R)-5-[(4-methoxypyridin-2-yl)oxy]-2-methylpiperidin-1-yl}carbonyl)-2-phenylpyridine], for which the IC50 was 24.5 nM on human orexin-2 receptor and 746 nM at hOX1R. `COc1ccnc(O[C@@H]2CC[C@@H](C)N(C(=O)c3c(F)cccc3-n3nccn3)C2)c1` [Example 17, 2-{[(3R,6R)-1-{[2-fluoro-6-(2H-1,2,3-triazol-2-yl)phenyl]carbonyl}-6-methylpiperidin-3-yl]oxy}-4-methoxypyridine]: the IC50 was 27 nM at human orexin-2 receptor and 1600 nM at hOX1R.

For `COc1ccnc(O[C@@H]2CC[C@@H](C)N(C(=O)c3ccc(OC)nc3-n3nccn3)C2)c1` [Example 18], the IC50 at human orexin-2 receptor was 94.5 nM; on hOX1R, 10000 nM.

`COc1ccnc(O[C@@H]2CC[C@@H](C)N(C(=O)c3ccc(F)cc3-n3nccn3)C2)c1` [Example 19, 2-{[(3R,6R)-1-{[4-fluoro-2-(2H-1,2,3-triazol-2-yl)phenyl]carbonyl}-6-methylpiperidin-3-yl]oxy}-4-methoxypyridine]: the figures for the IC50 on human orexin-2 receptor and at hOX1R were 22.1 nM and 1800 nM, respectively. With `COc1ccnc(O[C@@H]2CC[C@@H](C)N(C(=O)c3ccc(OC)cc3-n3nccn3)C2)c1` [Example 20, 4-methoxy-2-{[(3R,6R)-1-{[4-methoxy-2-(2H-1,2,3-triazol-2-yl)phenyl]carbonyl}-6-methylpiperidin-3-yl]oxy}pyridine], the IC50 is 114 nM at human orexin-2 receptor and 10000 nM at hOX1R. On to `COc1ccnc(O[C@@H]2CC[C@@H](C)N(C(=O)c3ccc(OC)nc3C3CC3)C2)c1` [Example 21, 2-cyclopropyl-6-methoxy-3-({(2R,5R)-5-[(4-methoxypyridin-2-yl)oxy]-2-methylpiperidin-1-yl}carbonyl) pyridine], for which the IC50 at human orexin-2 receptor turned out to be 38.3 nM; at hOX1R, 8190 nM. `CC(C)Oc1ccnc(O[C@@H]2CC[C@@H](C)N(C(=O)c3ccc(F)cc3-n3nccn3)C2)c1` [Example 23, 2-{[(3R,6R)-1-{[4-fluoro-2-(2H-1,2,3-triazol-2-yl)phenyl]carbonyl}-6-methylpiperidin-3-yl]oxy}-4-(1-methylethoxy) pyridine]: the IC50 stood at 41.2 nM at human orexin-2 receptor and 2140 nM on hOX1R. For `COc1ccc(C(=O)N2C[C@H](Oc3cc(OC(C)C)ccn3)CC[C@H]2C)c(-n2nccn2)c1` [Example 24, 2-{[(3R,6R)-1-{[4-methoxy-2-(2H-1,2,3-triazol-2-yl)phenyl]carbonyl}-6-methylpiperidin-3-yl]oxy}-4-(1-methylethoxy) pyridine] the same measures were 136 nM and 10000 nM. For `COc1ccc(C(=O)N2C[C@H](Oc3cc(OC(C)C)ccn3)CC[C@H]2C)c(-n2nccn2)n1` [Example 25, 6-methoxy-3-{[(2R,5R)-2-methyl-5-{[4-(1-methylethoxy)pyridin-2-yl]oxy}piperidin-1-yl]carbonyl}-2-(2H-1,2,3-triazol-2-yl)pyridine], the IC50 at human orexin-2 receptor was found to be 110 nM; at hOX1R it was 10000 nM. On to `CC(C)Oc1ccnc(O[C@@H]2CC[C@@H](C)N(C(=O)c3cc(F)ccc3-n3nccn3)C2)c1` [Example 26, 2-{[(3R,6R)-1-{[5-fluoro-2-(2H-1,2,3-triazol-2-yl)phenyl]carbonyl}-6-methylpiperidin-3-yl]oxy}-4-(1-methylethoxy) pyridine], for which the IC50 amounted to 37.2 nM on human orexin-2 receptor and 2480 nM on hOX1R. For `COc1ccnc(O[C@@H]2CC[C@@H](C)N(C(=O)c3ccsc3-n3nccn3)C2)c1` [Example 59, 4-methoxy-2-{[(3R,6R)-6-methyl-1-{[2-(2H-1,2,3-triazol-2-yl)thiophen-3-yl]carbonyl}piperidin-3-yl]oxy}pyridine], the IC50 at human orexin-2 receptor turned out to be 11 nM.
